Measured values: patent US20070026478A1, “Hemiasterlin affinity probes and their uses” (WYETH, priority 2002, published 2007)
Several values for one entry are separate records, joined by “and”; a condition that tells them apart may be missing. Identical values can stand only once. Like-named read-outs stand apart in the source and are kept apart here. Marks after values point to notes of the source that are not given here.

What was measured:
[1] = target: microtubule associated protein (MAP)-rich bovine brain tubulin (bovine) (UniProt P81947)
[2] = target: microtubule associated protein (MAP)-rich bovine brain tubulin (bovine) (UniProt P81947); experiment: reversible binding to bovine brain tubulin (range given in Table 1)
[3] = target: α-tubulin of bovine brain tubulin (bovine) (UniProt P81947); experiment: 1 mM HTI-286 against 2.5 µM [3H]-Probe 1 photolabeling, fluorography
[4] = target: microtubule associated protein (MAP)-rich bovine brain tubulin (bovine) (UniProt P81947); experiment: 100 µM HTI-286 against 0.25 µM [3H]-Probe 1 photolabeling of tubulin, 37° C.
[5] = target: microtubule associated protein (MAP)-rich bovine brain tubulin (bovine) (UniProt P81947); experiment: 100 µM HTI-286 against 0.25 µM [3H]-Probe 1 photolabeling of tubulin, room temperature
[6] = target: microtubule associated protein (MAP)-rich bovine brain tubulin (bovine) (UniProt P81947); experiment: 100 µM HTI-286 against 0.25 µM [3H]-Probe 2 photolabeling of tubulin, room temperature
[7] = target: microtubule associated protein (MAP)-rich bovine brain tubulin (bovine) (UniProt P81947); experiment: 100 µM non-radiolabeled Probe 1 against [3H]-Probe 1, tubulin: radiolabeled probe 2.5:2.5
[8] = target: microtubule associated protein (MAP)-rich bovine brain tubulin (bovine) (UniProt P81947); experiment: 100 µM non-radiolabeled Probe 1 against [3H]-Probe 1, tubulin: radiolabeled probe 2.5:0.25
[9] = target: microtubule associated protein (MAP)-rich bovine brain tubulin (bovine) (UniProt P81947); experiment: 100 µM non-radiolabeled Probe 1 against 0.25 µM [3H]-Probe 1 photolabeling of tubulin, 37° C.
[10] = target: microtubule associated protein (MAP)-rich bovine brain tubulin (bovine) (UniProt P81947); experiment: 100 µM non-radiolabeled Probe 1 against 0.25 µM [3H]-Probe 1 photolabeling of tubulin, room temperature
bovine brain tubulin [11] = target: T1, bovine brain tubulin (Bos taurus, UniProt P81947+Q6B856); experiment: Competition of [3H]-Probe 1 photolabeling of tubulin; type: binding; conditions: for Probe 1 photolabeling of tubulin (% of no-competitor control): control (no competitor) = 100; for IC50: read-out: IC50 for inhibition of Probe 1 photolabeling of tubulin
T1 construct: MAP-rich bovine brain tubulin (99% purity), Hela cell tubulin (90% purity); purchased Cytoskeleton (Denver, Colo.); host or cells: bovine brain
Protocol: (§1) Alternatively, a cytosolic preparation of KB-3-1 cell lysates (50 μg) or KB-3-1 cells (40,000 cells) were used in the place of purified tubulin above. The supernatant of mechanically disrupted cells centrifuged at 100,000×g was used as a cytosolic preparation. K-3-1 cells were prepared by growing KB-3-1 cells in a 96-well plate and rinsing them with serum free medium.
If whole cells were used, Laemmli sample buffer was then added to lyse the cells.
Low grade SDS (Sigma, catalog No. L5750) was used in the running buffer, when needed, to allow separation of α and β-tubulin subunits. Gels were fixed, stained with Coomassie blue from BioRad (Hercules, Calif.) to ensure equal loading of protein, and sliced. […] Alternatively, gels were incubated with EN^3HANCE according to the manufacturer's instructions (Life Sciences Products, Inc.), washed, and dried prior to exposure of the gel to Biomax MX film from Kodak (Rochester, N.Y.) for fluorography.
After incubation for 30 minutes at 37° C., samples were irradiated with 360 nm UV light for 30 minutes and separated by SDS-PAGE. Gels were exposed to film using fluorographic techniques.
In particular, photolabeling experiments were performed as described in section 7.1.5 above, at both room temperature and at 37° C.

tubulin [12] = target: T2, tubulin (Bos taurus, UniProt P81947+Q6B856); experiment: Competition of [3H]-Probe 2 photolabeling of tubulin; type: binding, bovine
T2 construct: MAP-rich bovine brain tubulin (99% purity), Hela cell tubulin (90% purity); purchased Cytoskeleton (Denver, Colo.); host or cells: bovine brain
Protocol: as §1
Competition binding experiments were performed as described in Section 7.1.5. […] Samples were then irradiated for 2 hours at 4° C. and evaluated by SDS-PAGE and fluorography.

α-tubulin = target: T3, α-tubulin (Bos taurus, UniProt P81947+Q6B856); experiment: Subtilisin digestion of tubulin after incubation with various compounds; type: biochemical, bovine; conditions: 50 μM drug, subtilisin up to 60 min at room temperature
T3 construct: MAP-rich bovine brain tubulin (99% purity), Hela cell tubulin (90% purity); purchased Cytoskeleton (Denver, Colo.); host or cells: bovine brain
Protocol: Tubulin (5 μg) was incubated with 50 μM drug at room temperature for 25 minutes and then digested under native conditions with subtilisin (0.05 μg) for 0, 5, 10, 15, 30 and 60 min at room temperature. Enzymatic digestion was stopped with 1 mM PMSF and samples were resolved by SDS-PAGE under conditions that allowed separation of α- and β-tubulin subunits. Gels were then fixed and stained with Coomassie blue.

tubulin [13] = target: T2, tubulin; experiment: Separation of polymerized and free tubulin by centrifugation; type: biochemical, bovine; conditions: 50 μM drug, centrifugation at 10,000 g and 100,000 g
Protocol: Tubulin (5 μg) was incubated with 50 μM drug at room temperature for 25 minutes and then centrifuged at either 10,000 g for 15 minutes in a tabletop microfuge or at 100,000 g for 15 minutes in an airfuge. The supernatant was carefully removed to a fresh tube to obtain free tubulin and the pellet was solubilized in SDS-PAGE sample buffer.

[14] = target: microtubule associated protein (MAP)-rich bovine brain tubulin (bovine) (UniProt P81947); experiment: change of fluorescence of rhodamine-labeled tubulin
[15] = target: microtubule associated protein (MAP)-rich bovine brain tubulin (bovine) (UniProt P81947); experiment: 100 µM non-radioactive Probe 2 against 0.25 µM [3H]-Probe 2 photolabeling of tubulin, room temperature
bovine brain tubulin [16] = target: T1, bovine brain tubulin; experiment: Reversible binding affinity assay (tubulin fluorescence)
Protocol: The affinity of both HTI-286 and of non-radiolabled Probe 1 and Probe 2, to bovine brain tubulin was determined by previously published methods (Krishnamurthy et al., Biochem., submitted). Briefly, 5 mg/mL […] tubulin prepared in PEM buffer was pre-incubated with buffer or varying concentrations of test agents in individual quartz cuvettes. The intrinsic tryptophan fluorescence of tubulin (excitation at 560 nm and maximal emission at 580 nm) was measured after pre-incubation for 90 minutes. The change in fluorescence intensity at 580 nm in the presence of compound was fitted to a quadratic equation to obtain apparent dissociation constants (KD) of the test agents.

bovine MAP-rich tubulin = target: T4, bovine MAP-rich tubulin (Bos taurus, UniProt P81947+Q6B856); experiment: Tubulin polymerization assay in a cell-free system; type: biochemical; conditions: 0.3 μM compound
T4 construct: MAP-rich bovine brain tubulin (99% purity), Hela cell tubulin (90% purity); purchased Cytoskeleton (Denver, Colo.); host or cells: bovine brain
Protocol: In vitro tubulin polymerization assays were performed according to procedures that have been described elsewhere (Loganzo et al., Cancer Res. 2003, 63:1838-1845). Briefly, bovine MAP-rich tubulin (final concentration 1.5 mg/mL) was dissolved in cold PEM buffer containing 1 mM GTP (GPEM) and centrifuged at 12,000×g for 10 minutes at 4° C. The tubulin solution (100 μL/well) was added rapidly to wells of a low-volume, 96-well plate already containing duplicate aliquots (10 μL) of test compounds in GPEM. Final compound concentrations were 0.3 μM. Control wells contained the same final concentration of DMSO (0.3%). After initiation of the reaction, absorbance at 340 nm was measured every minute for 60 minutes at 24° C. using a SpectraMax Plus plate reader (Molecular Devices, Sunnyvale, Calif.). An increase in absorbance over time indicated an increase in turbidity resulting from tubulin polymerization.

KB cells = experiment: Cell proliferation assay in tissue culture (SRB); type: cell-based
Protocol: Cell proliferation studies were performed according to procedures described by Loganzo et al. (Cancer Res. 2003, 63:1838-1845). Briefly, KB cells were plated in 96-well plates in 100 μL media at densities pre-determined to produce 60-90% confluence at the time of analysis. Compounds, which were serially diluted into media as 2× stocks, were added to cells in duplicate. After 72 hours of incubation, cell survival was assayed by the SRB assay as described (Rabindran et al., C. Cancer Res. 1998, 58:5850-5858). IC50 values (i.e. the concentration of drug needed to inhibit cell growth by 50%) were used to evaluate drug potency.

[17] = Room Temp., 2.5 μM tubulin, 0.25 μM radiolabeled Probe 1, 100 μM competitor
[18] = room temperature, 2.5 μM tubulin, 0.25 μM radiolabeled Probe 1
[19] = room temperature, 400-fold molar excess (100 μM) competitor, 2.5 μM tubulin, 0.25 μM radiolabeled Probe 1
[20] = 100 μM competitor, 2.5 μM tubulin, 0.25 μM [3H]-Probe 2, room temperature

Compound	tubulin polymerization (% inhibition) [1] [%]	Kd [2]	Probe 1 photolabeling of tubulin (% of no-competitor control) (bovine brain tubulin [11]; 37° C., 100 μM competitor)	Probe 1 photolabeling of tubulin (% of no-competitor control) (bovine brain tubulin [11]; [17]) [%]	reduction of Probe 1 photolabeling of tubulin (bovine brain tubulin [11]; [19])	inhibition of Probe 2 labeling of tubulin (tubulin [12]; [20]) [%]	protection of α-tubulin from subtilisin cleavage (α-tubulin)	protein recovered in pellet fractions (tubulin aggregation) (tubulin [13])	further results
Nc1nc2c(ncn2[C@@H]2O[C@H](COP(=O)(O)OP(=O)(O)OP(=O)(O)O)[C@@H](O)[C@H]2O)c(=O)[nH]1 [GTP, guanosine-5′-triphosphate]	–	–	–	–	–	–	–	–	effect on incorporation of Probe 1 into tubulin (bovine brain tubulin [11]; pre-incubation with between 0 and 100 μM): did not significantly inhibit incorporation
CC[C@H](C)[C@@H]([C@@H](CC(=O)N1CCC[C@H]1[C@H](OC)[C@@H](C)C(=O)N[C@@H](Cc1ccccc1)c1nccs1)OC)N(C)C(=O)[C@@H](NC(=O)[C@H](C(C)C)N(C)C)C(C)C [Dolastatin-10]	–	–	26^† %	13 ± 3	approximately 87%	27	unable to cleave α-tubulin even after 60 minutes	significant amount of protein was recovered	reduction of Probe 1 photolabeling of tubulin (bovine brain tubulin [11]; 37° C.): about 75%; IC50 (bovine brain tubulin [11]; [18]): 5000 nM
Probe 2 (N,β,β-trimethyl-L-phenylalanyl-4-benzoyl-N-[(1S,2E)-3-carboxy-1-isopropyl-2-butenyl]-N,β,β-trimethyl-L-phenylalaninamide) (peptide)	69	1100 nM and 6000 nM	–	–	–	–	–	–	fold KD against HTI-286 [14]: 6 fold; percent inhibition of Probe 2 labeling (so in the source) [15]: 12%
CN[C@H](C(=O)N[C@H](C(=O)N(C)[C@H](/C=C(\C)C(=O)O)C(C)C)C(C)(C)c1ccc(C(=O)c2ccccc2)cc1)C(C)(C)c1ccccc1 [Probe 2, N,β,β-trimethyl-L-phenylalanyl-4-benzoyl-N-[(1S,2E)-3-carboxy-1-isopropyl-2-butenyl]-N,β,β-trimethyl-L-phenylalaninamide]	–	–	–	–	–	12	–	–	Kd (bovine brain tubulin [16]; Table 1, binding to bovine brain tubulin, read-out: KD): 1100 to 6000 nM; KD relative to KD of HTI-286 (bovine brain tubulin [16]; fluorescence method): approximately 6 fold; Kd (bovine brain tubulin [16]; rhodamine-labeled tubulin, 90 minutes pre-incubation, read-out: apparent binding constant (KD), fluorescence method): 3600 nM; inhibition at 0.3 µM (bovine MAP-rich tubulin): 69%; IC50 (KB cells; 72 hours): 22.4 ± 0.7 nM; IC50 (KB cells; Homo sapiens, KB, 72 h): 22 nM

More lines, main results first:

tubulin polymerization (% inhibition) [1] [%]	Kd [2]	Probe 1 photolabeling of tubulin (% of no-competitor control) (bovine brain tubulin [11]; 37° C., 100 μM competitor)	Probe 1 photolabeling of tubulin (% of no-competitor control) (bovine brain tubulin [11]; [17]) [%]	reduction of Probe 1 photolabeling of tubulin (bovine brain tubulin [11]; [19])	Compound	inhibition of Probe 2 labeling of tubulin (tubulin [12]; [20]) [%]	protection of α-tubulin from subtilisin cleavage (α-tubulin)	protein recovered in pellet fractions (tubulin aggregation) (tubulin [13])	further results
87.5	400 nM and 800 nM	–	–	–	HTI-286 (N,β,β-trimethyl-L-phenylalanyl-N1-[(1S,2E)-3-carboxy-1-isopropylbut-2-enyl]-N1,3-dimethyl-L-valinamide trifluoroacetate) (peptide)	–	–	–	percent inhibition of Probe 1 incorporation [3]: > 50%; Inhibition (%) (labeling against control = 100) [4]: 47%; Inhibition (%) (labeling against control = 100) [5]: 27%; percent inhibition of Probe 2 labeling (so in the source) [6]: 45%
88	800 nM	–	–	–	Probe 1 (4-benzoyl-N,β,β-trimethyl-L-phenylalanyl-N1-[(1S,2E)-3-carboxy-1-isopropylbut-2-enyl]-N1,3-dimethyl-L-valinamide) (peptide)	–	–	–	percent inhibition of tubulin labeling [7]: 82%; percent inhibition of tubulin labeling [8]: 93%; Inhibition (%) (labeling against control = 100) [9]: 24%; Inhibition (%) (labeling against control = 100) [10]: 12%
–	–	52 ± 0.5%	28 ± 1	approximately 72%	CC[C@]1(O)C[C@@H]2CN(CCc3c([nH]c4ccccc34)[C@@](C(=O)OC)(c3cc4c(cc3OC)N(C)[C@H]3[C@@](O)(C(=O)OC)[C@H](OC(C)=O)[C@]5(CC)C=CCN6CC[C@]43[C@@H]65)C2)C1 [Vinblastine]	64	unable to cleave α-tubulin even after 60 minutes	significant amount of protein was recovered	reduction of Probe 1 photolabeling of tubulin (bovine brain tubulin [11]; 37° C.): about 50%; IC50 (bovine brain tubulin [11]; [18]): 22000 nM
–	–	173 ± 7%	83 ± 41	almost no effect	CC(=O)O[C@H]1C(=O)[C@@]2(C)[C@H]([C@H](OC(=O)c3ccccc3)[C@]3(O)C[C@H](OC(=O)[C@H](O)[C@@H](NC(=O)c4ccccc4)c4ccccc4)C(C)=C1C3(C)C)[C@]1(OC(C)=O)CO[C@@H]1C[C@@H]2O [Paclitaxel]	–	unable to cleave α-tubulin even after 60 minutes	significant amount of protein was recovered	enhancement of Probe 1 photolabeling of tubulin (bovine brain tubulin [11]; 37° C.): 73%; Probe 2 photolabeling, % of the control value (tubulin [12]; [20]): 113%; enhancement of Probe 2 photolabeling (tubulin [12]; higher concentrations of competitor): this effect was lost
